Source: ChEMBL document CHEMBL1129937, “Synthesis and dihydrofolate reductase inhibitory activities of 2,4-diamino-5-deaza and 2,4-diamino-5,10-dideaza lipophilic antifolates” (J Med Chem, 1997)

Columns and labels:
[1] = target: T1, Bifunctional dihydrofolate reductase-thymidylate synthase (Toxoplasma gondii, UniProt Q07422)
T1 sequence (Q07422 whole entry): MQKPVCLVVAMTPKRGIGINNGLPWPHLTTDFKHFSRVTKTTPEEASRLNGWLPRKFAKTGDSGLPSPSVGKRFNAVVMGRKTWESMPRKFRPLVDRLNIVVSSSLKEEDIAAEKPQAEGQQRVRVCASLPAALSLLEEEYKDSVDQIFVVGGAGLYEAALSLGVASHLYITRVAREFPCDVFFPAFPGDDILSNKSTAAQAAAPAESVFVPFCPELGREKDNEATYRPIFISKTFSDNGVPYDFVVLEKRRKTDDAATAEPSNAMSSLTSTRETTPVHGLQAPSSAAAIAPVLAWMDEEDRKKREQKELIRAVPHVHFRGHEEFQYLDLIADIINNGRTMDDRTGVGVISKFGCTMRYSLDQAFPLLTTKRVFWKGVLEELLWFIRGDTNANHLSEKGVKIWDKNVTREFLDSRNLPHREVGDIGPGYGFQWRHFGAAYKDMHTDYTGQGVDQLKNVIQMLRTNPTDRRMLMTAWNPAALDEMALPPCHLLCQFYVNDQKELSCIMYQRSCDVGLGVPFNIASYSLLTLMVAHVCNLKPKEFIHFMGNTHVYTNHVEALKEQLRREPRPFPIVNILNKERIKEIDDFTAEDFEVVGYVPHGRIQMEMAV
Description: Inhibitory concentration against Dihydrofolate reductase from Toxoplasma gondii (tg)

Dihydrofolate reductase [2] = target: T2, Dihydrofolate reductase (Rattus norvegicus, UniProt Q920D2)
T2 sequence (Q920D2 whole entry): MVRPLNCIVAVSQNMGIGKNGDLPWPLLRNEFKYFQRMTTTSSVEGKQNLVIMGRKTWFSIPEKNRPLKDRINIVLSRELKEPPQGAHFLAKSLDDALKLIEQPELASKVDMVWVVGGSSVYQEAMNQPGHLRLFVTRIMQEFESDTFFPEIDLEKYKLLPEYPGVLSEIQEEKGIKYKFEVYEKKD
Description: Inhibitory concentration against Dihydrofolate reductase from Rat liver (rl)

Dihydrofolate reductase [3] = target: T3, Dihydrofolate reductase (Pneumocystis carinii, UniProt P16184)
T3 sequence (P16184 whole entry): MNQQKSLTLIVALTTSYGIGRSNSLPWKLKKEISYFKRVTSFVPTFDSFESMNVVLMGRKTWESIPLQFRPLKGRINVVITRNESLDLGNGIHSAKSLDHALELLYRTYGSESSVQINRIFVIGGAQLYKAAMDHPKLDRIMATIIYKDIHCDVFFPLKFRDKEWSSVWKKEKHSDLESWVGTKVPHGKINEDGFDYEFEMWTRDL
Description: Inhibitory concentration against Dihydrofolate reductase from Pneumocystis carinii (pc)

SMILES | IC50 [1] [nM] | IC50 (Dihydrofolate reductase [2]) [nM] | IC50 (Dihydrofolate reductase [3]) [nM]
COc1ccc(/C=C/c2cnc3nc(N)nc(N)c3c2)cc1OC | 1400 | 2100 | 2600
COc1cc(CCc2cnc3nc(N)nc(N)c3c2)cc(OC)c1OC | 200 | 1140 | 
COc1cc(N(C)Cc2cnc3nc(N)nc(N)c3c2)cc(OC)c1OC |  | 280 | 
COc1ccc(/C=C/c2cnc3nc(N)nc(N)c3c2)cc1 | 1500 | 11800 | 5300
COc1ccc(CCc2cnc3nc(N)nc(N)c3c2)cc1OC | 200 | 610 | 1400
COc1cc(/C=C/c2cnc3nc(N)nc(N)c3c2)cc(OC)c1OC | 1400 | 12900 | > 5000
COc1ccc(CCc2cnc3nc(N)nc(N)c3c2)cc1 | 250 | 260 | 290
COc1ccc(CCC2CNc3nc(N)nc(N)c3C2)cc1OC (stereo unspecified) | 1100 | 2100 | 
COc1cc(NCc2cnc3nc(N)nc(N)c3c2)cc(OC)c1OC | 300 | 1900 | 
COc1cc(N(C=O)Cc2cnc3nc(N)nc(N)c3c2)cc(OC)c1OC | 1100 | 7400 | 18500
CCN(Cc1cnc2nc(N)nc(N)c2c1)c1cc(OC)c(OC)c(OC)c1 | 49 | 120 | 190
COc1cc(CCC2CNc3nc(N)nc(N)c3C2)cc(OC)c1OC (stereo unspecified) | 470 | 6100 | 61700
